The values below come from patent publication US10905691B2, “Use of triazolo(4,5-d)pyrimidine derivatives for prevention and treatment of bacterial infection” (Universite de Liege, priority 2016, dated 2021).

Test [1] relates to S. aureus MRSA (ATCC BAA-1556). Description: Killing curve (CFU counting). Format: cell-based, Staphylococcus aureus. The procedure: S. aureus MRSA (ATCC BAA-1556) was grown overnight in brain heart infusion (BHI) medium, diluted 1:100 in fresh BHI, and incubated aerobically at 37° C. until bacteria growth reached a logarithmic phase (OD600=0.25-0.3).
Triafluocyl (Cayman Chemical, Item No. 15425) (20 μg/ml), Vancomycin (Sigma, 4 μg/ml or 10 μg/ml), Minocycline (Sigma, 8 μg/ml) or a solvent (DMSO) were added to 5 ml of S. aureus MRSA suspensions.
Bacterial growth for S. aureus MRSA was measured after different time intervals by counting the colony-forming units after plating appropriate culture dilutions on BHI agar plates.
S. aureus MRSA (ATCC BAA-1556) was grown overnight in BHI medium, then a 1:100 inoculum was diluted in fresh BHI and incubated aerobically at 37° C. until bacteria growth reached a logarithmic phase (OD600=0.25-0.3). The culture was split into two and challenged with 38 μM Fluometacyl (=18.2 μg/ml) or DMSO (Ctrl). Bacterial growth was measured after different time intervals by counting the colony-forming units after plating appropriate culture dilutions on BHI agar plates. (N=2)

In test [2] the test system is E. faecalis vancomycin-resistant (VRE) ATCC BAA-2365. Description: MIC determination (EUCAST, Mueller-Hinton broth). To be noted: Enterococcus faecalis. Format: cell-based. As for the experimental part: Further experiments were conducted using different strains of E. faecalis, as clinically relevant Gram-positive bacterial strains: E. faecalis vancomycin-resistant (VRE) ATCC BAA-2365, and E. faecalis ATCC 29212 in order to determine the Minimal Inhibitory Concentration (MIC) which is the minimal concentration required to prevent bacterial growth; the Minimal Bactericidal Concentration (MBC) which determines the lowest concentration at which an antimicrobial agent kill a particular microorganism and a Minimum Duration for killing 99.9% bacteria (MDK99.9) which is a tolerance metric according to the EUCAST.
MIC determination: A single colony selected from the different strains of E. faecalis is resuspended and cultured in the appropriate medium overnight (O/N) in aerobic conditions (37° C. with 220 rpm shaking), next day a 1:100 inoculum in Mueller-Hinton broth (MHB) was incubated in aerobic conditions for 3 hr (OD=0.08-0.1) and an inoculum of 1:300 dilution, corresponding to 3×10^5 CFU/ml, was incubated in presence or absence of different concentrations of Triafluocyl in 1% DMSO. […]
The Minimal Inhibitory Concentration (MIC) and the Minimal Bactericidal Concentration (MBC) of Fluometacyl were determined on several gram-positive strains (Table 2) following EUCAST (European Committee on Antimicrobial susceptibility Testing) recommendations. […]

Test [3] concerns Pseudomonas aeruginosa (ATCC 27853). Description: MIC determination with or without C12(ω7)Kβ12 (OAK). Format: cell-based. To be noted: for MIC: Pseudomonas aeruginosa, ATCC27853, in presence of 10 μg/ml OAK (C12(ω7)Kβ12). As for the experimental part:
Determination of Minimal Inhibitory Concentration (MIC) of Triafluocyl (Cayman Chemical, Item No. 15425) in presence of C12(ω7)Kβ12 (provided by Custom synthesis Biomers Germany) against Pseudomonas aeruginosa (ATCC 27853).
A single colony of Pseudomonas aeruginosa grown on a Tryptic Soy agar (TSA) plate is resuspended and cultured in Tryptic Soy Broth (TSB) medium overnight (O/N) in aerobic conditions (37° C. with 190 rpm shaking in New Brunswick Innova 4200 Incubator Shaker). Next day the resulting inoculum is diluted again at 1:100 in Mueller-Hinton broth (MHB) and then incubated in aerobic conditions for 1 h30 (OD=0.08-0.1) to reach an exponential phase in the grown curve. A resulting inoculum corresponding to around 5×10^5 colony forming unit (CFU)/ml, is further incubated in presence or absence of different concentrations (10 and 20 μg/ml) of Triafluocyl in 2% DMSO with or without C12(ω7)Kβ12 for 18 hr in aerobic conditions (37° C. with 190 rpm shaking in New Brunswick Innova 4200 Incubator Shaker). Growth of Pseudomonas aeruginosa in each condition depicted in FIG. 15A is evaluated by reading the OD of each culture at 600 nm (OD600) in a spectrophotometer (Fisher Scientific, cell density meter model 40).
Determination of Minimal Inhibitory Concentration (MIC) of Fluometacyl (prepared according to WO99/0514) in presence of C12(ω7)Kβ12 (provided by Biomers.net Germany) against Pseudomonas aeruginosa (ATCC 27853). The C12(ω7)Kβ12 was synthesized by solid-phase method as described by I. Radzishevsky in Antimicrobial Agents and Chemotherapy, May 2007 (1753-1759) (https://aac.asm.org/content/51/5/1753)
A single colony of Pseudomonas aeruginosa grown on a Tryptic Soy agar (TSA) plate is resuspended and cultured in Tryptic Soy Broth (TSB) medium overnight (O/N) in aerobic conditions (37° C. with 220 rpm shaking in New Brunswick Innova 4200 Incubator Shaker). Next day the resulting inoculum is diluted again at 1:100 in Mueller-Hinton broth (MHB) and then incubated in aerobic conditions for 1 h30 (OD=0.08-0.1) to reach an exponential phase in the grown curve. A resulting inoculum corresponding to around 5×10^5 colony forming unit (CFU)/ml, is further incubated in presence or absence of different concentrations (10 and 20 μg/ml) of Fluometacyl in 2% DMSO with or without C12(ω7)Kβ12 for 18 hr in aerobic conditions (37° C. with 190 rpm shaking in New Brunswick Innova 4200 Incubator Shaker). Growth of Pseudomonas aeruginosa in each condition depicted in FIG. 16A is evaluated by reading the Optical Density of each culture at 600 nm (OD600) in a spectrophotometer (Fisher Scientific, cell density meter model 40).

As usually defined, the MIC is the lowest concentration that inhibits growth of the organism. On to `CCCSc1nc(N[C@@H]2C[C@H]2c2ccc(F)c(F)c2)c2nnn([C@@H]3C[C@H](O)[C@@H](O)[C@H]3O)c2n1` [Fluometacyl, (1S,2R,3S,4R)-4-[7-[[(1R,2S)-2-(3,4-Difluorophenyl)cyclopropyl]amino]-5-(propylthio)-3H-1,2,3-triazolo[4,5-d]pyrimidin-3-yl]-1,2,3-cyclopentanetriol], for which the “bactericidal activity against S. aureus MRSA (time-kill)” value in test [1] (38 μM (=18.2 μg/ml), FIG. 9) is listed as “bactericidal activity”. For the same compound, the MIC in test [2] turned out to be 38 µM; in test [3], 20 µg/mL. The “inhibition of P. aeruginosa growth” value in test [3] (taken alone at a concentration of 20 μg/ml) was “unable to inhibit P. aeruginosa growth”.

Regarding `CCCSc1nc(N[C@@H]2C[C@H]2c2ccc(F)c(F)c2)c2nnn([C@@H]3C[C@H](OCCO)[C@@H](O)[C@H]3O)c2n1` [Triafluocyl, (1S,2S,3R,5S)-3-[7-[(1R,2S)-2-(3,4-difluorophenyl)cyclopropylamino]-5-(propylthio)-3H-[1,2,3]-triazolo[4,5-d]pyrimidin-3-yl]-5-(2-hydroxyethoxy)-1,2-cyclopentanediol], in test [1] (Triafluocyl 20 μg/ml, Vancomycin 10-fold MIC, Minocycline 8-fold MIC, FIG. 8A), the “effect on S. aureus MRSA viable count after the first two hours” value is listed as “decrease of S. aureus MRSA viable count”. In addition, the MIC in test [2] came to 20 µg/mL; in test [3] it was 10 µg/mL. Also, the “inhibition of P. aeruginosa growth” value in test [3] (taken alone at a concentration of 10 μg/ml) was “unable to inhibit P. aeruginosa growth”.
